Numbered stars: 1 amine (or outer) side, 2 acyl side, 3 side chain; on linkers, the order of the positions; unused ones are H or OH. Square brackets hold non-standard residues; d marks the D form. Side chains are listed from the residue outwards. Peptide text beside a SMILES is read from it. * marks the point of attachment. DOTA = O=C(O)CN1CCN(CC(=O)O)CCN(CC(=O)*)CCN(CC(=O)O)CC1; d(γGlu) = O=C(O)[C@@H](CCC(=O)[*:2])N[*:1]; 1Nal = N[C@@H](Cc1cccc2ccccc12)C(=O)O; NMeNle = CCCC[C@H](NC)C(=O)O; PEG4 = NCCOCCOCCOCCOCCC(=O)O
What was measured:
[1] = type: physicochemical; details: pH 7.4
Experimental: The hydrophilicity of [^68Ga]Ga-DOTA-CCK2R-dimer and [^68Ga]Ga-DOTA-CCK-66 was assessed by determining their partition coefficients (Log D7.4) in a phosphate-buffered saline (PBS; pH 7.4)/n-octanol (1:1, v/v) system. Briefly, ~37 kBq of each radiotracer was mixed with 2 mL of the biphasic system, vortexed for 5 min, and centrifuged at 15,000 × g for 5 min. The radioactivity in 100 μL aliquots of each phase was quantified using a γ-counter (n = 5).

[2] = set-up: species or system KM mice; details: mouse, in vivo, iv
Experimental: To evaluate the clearance rates of [^68Ga]Ga-DOTA-CCK2R-dimer and [^68Ga]Ga-DOTA-CCK-66 from the blood, a pharmacokinetic study was conducted in male KM mice (4-6 weeks old, 18-20 g, n = 5/group). Each mouse received 3.7 MBq of radiotracer via tail vein injection, corresponding to approximately 120 pmol of [^68Ga]Ga-DOTA-CCK2R-dimer or 210 pmol of [^68Ga]Ga-DOTA-CCK-66. Blood samples were collected from the tail vein into preweighed capillary tubes at 1, 3, 5, 10, 15, 30, 60, 90, 120, and 150 min post-injection. The radioactivity of the blood samples was measured using a γ-counter, and the percent of injected dose per gram of tissue (%ID/g) was calculated. Additionally, we assessed the in vivo stability of [^177Lu]Lu-DOTA-CCK2R-dimer. Mice were intravenously injected with 7.4 MBq (≈ 240 pmol) of [^177Lu]Lu-DOTA-CCK2R-dimer (dissolved in 200 μL of saline; n = 3/group). Urine samples were collected at 1, 4, and 24 hours post-injection, then diluted, filtered through a 0.22 μm membrane, and analyzed by radio-HPLC.
All animal studies were approved by the Ethics Committee of Fudan University […]
Shanghai Cancer Center (No. FUSCC-IACUC- S2023- 0003). […]
Pharmacokinetics in Normal Mice
F or the pharmacokinetics study, […] male KM mice (4 - 6 weeks old, weighing 18 - 20 g) were administered either [68Ga]Ga-D O TA -CCK2R-dimer or [68Ga]Ga-D O TA -CCK- 66 (3.7 MBq per mouse, n = 5/group) via tail vein injection.
Blood samples were collected from the tail vein using pre-weighed capillary tubes at […]
Radioactivity levels were measured using a gamma counter, with decay correction applied based on the injection time. The percentage of injected dose per gram of tissue (%ID/g) was calculated for each time point. […]

in vivo = assay: in vivo; set-up: species or system BALB/c nude mice; details: female, BALB/c nude, mouse, iv, total radioactivity
Experimental: For the micro-positron emission tomography/computed tomography (microPET/CT) imaging study, BALB/c nude mice bearing AR42J tumors (detailed in Supplementary Methods Section S3: Mouse Models) were intravenously injected with 3.7 MBq of [^68Ga]Ga-DOTA-CCK2R-dimer (≈ 120 pmol) or [^68Ga]Ga-DOTA-CCK-66 (≈ 210 pmol) (dissolved in 200 μL of saline; n = 3/group), and microPET/CT imaging was performed at 30, 60, and 120 min post-injection. The mice were anesthetized via inhalation of an isoflurane mixture approximately 5 min before each PET/CT acquisition began. To confirm tumor-specific radiopharmaceutical uptake, blocking experiments were conducted at the 1-h time point of imaging by coinjecting the mice with the radiopharmaceutical and a 400-fold excess of the lead compound.
All animal studies were approved by the Ethics Committee of Fudan University
Shanghai Cancer Center (No. FUSCC-IACUC- S2023- 0003). Five-week-old female
BALB/c nude mice were purchased from Shanghai SLAC Laboratory Animal
Company. To establish cell-derived xenograft (CDX) models, 1 × 10⁶ AR42J cells
(100 μL) were subcutaneously inoculated into the right shoulder of each mouse. […]

| SMILES | logD [1] | half-life [2] [min] | tissue uptake at 0.5 h (in vivo; 3.7 MBq) [%ID/g] | tissue uptake at 1 h (in vivo; 3.7 MBq) [%ID/g] | tissue uptake at 2 h (in vivo; 3.7 MBq) [%ID/g] | tissue uptake at 1 h (in vivo) [%ID/g] | t1/2α [2] [min] |
| --- | --- | --- | --- | --- | --- | --- | --- |
| CCCC[C@@H](C(=O)N[C@@H](CC(=O)O)C(=O)N[C@@H](Cc1cccc2ccccc12)C(N)=O)N(C)C(=O)[C@H](Cc1c[nH]c2ccccc12)NC(=O)CCOCCOCCOCCOCCNC(=O)CC[C@@H](NC(=O)CC[C@H](NC(=O)CN1CCN(CC(=O)O)CCN(CC(=O)O)CCN(CC(=O)O)CC1)C(=O)N[C@H](CCC(=O)NCCOCCOCCOCCOCCC(=O)N[C@@H](Cc1c[nH]c2ccccc12)C(=O)N(C)[C@@H](CCCC)C(=O)N[C@@H](CC(=O)O)C(=O)N[C@@H](Cc1cccc2ccccc12)C(N)=O)C(=O)O)C(=O)O [[68Ga]Ga-DOTA-CCK2R-dimer, metal not drawn] ({DOTA}-E([d(γGlu)-PEG4-Trp-NMeNle-Asp-1Nal-NH2])[d(γGlu)][PEG4]W[NMeNle]D[1Nal]-NH2) | -3.01 ± 0.05 | 46.6 | 22.6 ± 0.32 | 23.9 ± 2.12 | 26.1 ± 6.21 | 10.9 ± 1.73 |  |
| CCCC[C@@H](C(=O)N[C@@H](CC(=O)O)C(=O)N[C@@H](Cc1cccc2ccccc12)C(N)=O)N(C)C(=O)[C@H](Cc1c[nH]c2ccccc12)NC(=O)CCOCCOCCOCCOCCNC(=O)CC[C@@H](NC(=O)CN1CCN(CC(=O)O)CCN(CC(=O)O)CCN(CC(=O)O)CC1)C(=O)O [[68Ga]Ga-DOTA-CCK-66, metal not drawn, reference compound] ({DOTA-d(γGlu)-PEG4}-W[NMeNle]D[1Nal]-NH2) | -3.03 ± 0.03 | 11.8 | 16 ± 2.18 | 19.5 ± 2.95 | 19.6 ± 3.35 | 7.9 ± 1.35 | 0.67 |

— paper PMC12439480, “Dimeric CCK2R radiotheranostic tracers synergize with mTOR inhibition for enhanced tumor therapy” (Theranostics, 2025)
